According to patent publication US8183387B2, “Phenylpyrazole derivatives” (Taisho Pharmaceutical Co., Ltd, priority 2007, dated 2012):

Key:
CHL/IU cells = experiment: Cytotoxicity test; assay type: cell-based, Chinese hamster; details: 48 hours culture, Cell counting kit-8
Experimental: Chinese hamster lung fibroblast-derived CHL/IU cells (DS Pharma Biomedical Co., Ltd., Japan) were seeded, and the medium was replaced on the following day by another medium (MEM+2 mM L-Glutamine+10% CS (all purchased from Invitrogen)) containing a test compound at various concentrations, followed by culture for an additional 48 hours. Using a Cell counting kit-8 (Dojindo Laboratories, Japan), the survival rate of the cells was determined to obtain a curve whose horizontal axis represents the test compound concentration and whose vertical axis represents the survival rate. The curve thus obtained was used to determine the concentration of the test compound at which the survival rate was 50%. As a result, this concentration was 275, 441 and >640 mmol/L for the compounds of Examples 56, 62 and 70, respectively.

human H3 receptor [1] = target: T1, human H3 receptor (Homo sapiens, UniProt Q9Y5N1); experiment: H3 receptor binding test (R(−)-α-methyl[3H]histamine); parameters: purchased Euroscreen ES-392-M; host or cells: CHO-K1; details: inhibition of R(−)-α-methyl[3H]histamine (2 nM) binding, membrane of human H3 receptor-expressing CHO-K1 cells
T1 sequence (Q9Y5N1 whole entry): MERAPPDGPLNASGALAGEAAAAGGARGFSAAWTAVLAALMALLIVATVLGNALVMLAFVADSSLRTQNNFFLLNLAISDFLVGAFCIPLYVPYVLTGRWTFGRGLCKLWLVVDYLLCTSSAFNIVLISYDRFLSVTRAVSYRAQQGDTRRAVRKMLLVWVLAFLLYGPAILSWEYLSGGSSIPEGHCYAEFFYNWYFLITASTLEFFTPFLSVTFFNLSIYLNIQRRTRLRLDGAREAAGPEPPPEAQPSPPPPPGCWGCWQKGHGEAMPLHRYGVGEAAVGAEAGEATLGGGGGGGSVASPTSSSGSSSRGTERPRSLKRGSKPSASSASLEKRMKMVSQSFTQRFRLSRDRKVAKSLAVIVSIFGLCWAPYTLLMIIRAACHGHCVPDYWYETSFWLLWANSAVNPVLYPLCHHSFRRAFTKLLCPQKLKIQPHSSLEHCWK
Experimental: A membrane preparation of human H3 receptor-expressing CHO-K1 cells (Euroscreen, ES-392-M, 15 μg protein/200 μl), R(−)-α-methyl[^3H]histamine (Amersham, TRK-1017, specific activity: 1.74 TBq/mmol, 2 nM) and a test drug were reacted at room temperature for 1 hour. After completion of the reaction, the reaction mixture was subjected to suction filtration through a 0.3% polyethyleneimine-treated glass filter (GF/C). The glass filter was washed five times with 50 mM Tris-HCl washing solution (pH 7.4) containing 5 mM EDTA. After washing, the glass filter was dried and a scintillator was added thereto, followed by measurement of radioactivity on the filter using a liquid scintillation counter.
A fixed concentration (2 nM) of R(−)-α-methyl[^3H]histamine was reacted under the above conditions with each test drug at various concentrations to obtain an inhibition curve.

human H3 receptor [2] = target: T1, human H3 receptor; experiment: [35S]GTP-γ-S binding test
Experimental: After completion of the reaction, [^35S]GTP-γ-S (0.2 nM) was added and reacted for an additional 30 minutes. After completion of the reaction, the reaction mixture was subjected to suction filtration through a glass filter (GF/C). The glass filter was washed three times with 20 mM HEPES washing solution (pH 7.4) containing 100 mM sodium chloride and 1 mM magnesium chloride. After washing, the glass filter was dried and a scintillator was added thereto, followed by measurement of radioactivity on the filter using a liquid scintillation counter.
Binding of [^35S]GTP-γ-S in the absence of R(−)-α-methylhistamine was defined as non-specific binding, and the difference between total binding in the presence of R(−)-α-methylhistamine and non-specific binding was defined as specific binding of [^35S]GTP-γ-S. Fixed concentrations of [^35S]GTP-γ-S (0.2 nM) and R(−)-α-methylhistamine (100 μM) were reacted under the above conditions with each test drug at various concentrations to obtain an inhibition curve.

[3] = Metabolic stability test in human liver; assay type: in vitro ADME; details: liver microsomes, pH 7.4; human liver microsome 1 mg protein/mL, test compound 1 μM, 37° C.
Experimental: Using human liver microsome (Xenotech, H0630), the in vitro metabolic half-life was calculated. A reaction solution (300 μL) was prepared to contain a test compound at 1 μM in 250 mM Na—K-phosphate buffer (pH 7.4) containing, at final concentrations, 2.4 mM MgCl2, 1.5 mM glucose-6-phosphate (G-6-P), 0.18 U/mL glucose-6-phosphate dehydrogenase (G-6-P DH), 69 mM KCl, 0.16 mM (3-nicotinamide-adenine dinucleotide phosphate, oxidized form (NADP) and 1 mg microsomal protein/mL. After pre-incubation at 37° C. for 5 minutes, the NADP solution was added to initiate the reaction. The incubation time was set to 0, 10, 20, 30, 45 or 60 minutes. The reaction was stopped by addition of a CH3CN:CH3OH (1:1) solution in the same volume as that of the reaction solution. The sample after the reaction was centrifuged at 3639×g at 4° C. for 10 minutes, and the resulting supernatant was analyzed by LC/MS. Using the time period during which linearity was observed, the metabolic half-life was calculated from the slope.

σ1 receptor = target: T2, σ1 receptor (Homo sapiens, UniProt Q99720); experiment: [3H](+)pentazocine binding test; details: [3H](+)pentazocine 8 nM, Jurkat cell membrane
T2 construct: host or cells: Jurkat cells (membrane)
T2 sequence (Q99720 whole entry): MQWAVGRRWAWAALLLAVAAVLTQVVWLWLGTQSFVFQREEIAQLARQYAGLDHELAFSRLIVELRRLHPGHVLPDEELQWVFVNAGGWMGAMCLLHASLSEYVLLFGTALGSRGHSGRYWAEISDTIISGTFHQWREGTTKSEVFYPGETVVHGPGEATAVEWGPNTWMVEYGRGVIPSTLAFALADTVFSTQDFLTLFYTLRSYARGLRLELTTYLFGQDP
Experimental: Affinity for σ1 receptor was evaluated in a [^3H](+)pentazocine binding test by Cerep, Inc. The σ1 receptor preparation used was the membrane of Jurkat cells. The Jurkat cell membrane was incubated with [^3H](+)pentazocine (8 nM) at 22° C. for 120 minutes.

[4] = target: human recombinant μ receptor (Homo sapiens, UniProt P35372); experiment: [3H]diprenorphine binding test; details: read-out: % Inhibition (10 μM), μ receptor
Chain of human recombinant μ receptor (P35372 whole entry): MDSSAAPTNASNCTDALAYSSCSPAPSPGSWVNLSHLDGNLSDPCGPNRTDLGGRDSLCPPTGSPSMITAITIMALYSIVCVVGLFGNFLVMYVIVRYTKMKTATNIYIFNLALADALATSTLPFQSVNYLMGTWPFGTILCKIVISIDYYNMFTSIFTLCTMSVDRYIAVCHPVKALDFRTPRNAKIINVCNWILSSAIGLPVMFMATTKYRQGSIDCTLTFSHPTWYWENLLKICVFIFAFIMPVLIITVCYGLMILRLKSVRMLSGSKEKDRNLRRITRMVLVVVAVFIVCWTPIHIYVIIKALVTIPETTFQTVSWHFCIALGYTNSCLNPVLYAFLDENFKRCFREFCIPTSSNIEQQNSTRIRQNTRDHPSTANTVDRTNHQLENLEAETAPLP
Experimental: Affinity for μ receptor was evaluated in a [^3H]diprenorphine binding test by Cerep, Inc. The μ receptor preparation used was human recombinant μ receptor. […] Binding of [^3H]diprenorphine in the presence of 1 μM naltrexone was defined as non-specific binding, and the difference between total binding and non-specific binding of [^3H]diprenorphine was defined as specific binding of [^3H]diprenorphine.

[5] = target: T3, human recombinant δ receptor (Homo sapiens, UniProt P41143); experiment: [3H]DADLE binding test; details: [3H]DADLE 0.5 nM
T3 construct: Cerep, Inc. (contract assay)
T3 sequence (P41143 whole entry): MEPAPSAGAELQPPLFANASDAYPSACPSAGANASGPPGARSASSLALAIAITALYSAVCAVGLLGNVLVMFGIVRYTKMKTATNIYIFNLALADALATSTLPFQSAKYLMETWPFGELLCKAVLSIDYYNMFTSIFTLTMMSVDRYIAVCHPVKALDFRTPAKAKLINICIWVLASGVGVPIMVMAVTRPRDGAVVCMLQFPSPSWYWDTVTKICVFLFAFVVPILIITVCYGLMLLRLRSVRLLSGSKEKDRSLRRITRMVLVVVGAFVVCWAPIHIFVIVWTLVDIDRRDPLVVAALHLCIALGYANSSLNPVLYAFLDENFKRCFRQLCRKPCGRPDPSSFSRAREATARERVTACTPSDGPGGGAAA
Experimental: Affinity for δ receptor was evaluated in a [^3H]DADLE binding test by Cerep, Inc. The δ receptor preparation used was human recombinant δ receptor. The human recombinant δ receptor was incubated with [^3H]DADLE (0.5 nM) at 22° C. for 120 minutes.

[6] = Distribution test in rats; assay type: in vivo, rat; details: SD rats, single oral dose 3 mg/kg (2.75 mg/kg as a free form); plasma and organs at 1, 2, 4, 8 and 24 hours
Experimental: SD rats were used and orally administered once with the compound of Example 70 at a dose of 3 mg/kg (2.75 mg/kg as a free form) to confirm the tissue distribution of the compound in plasma, brain, liver, kidney, spleen, lung, heart, muscle, fat, testis, bone marrow and adrenal gland at 1, 2, 4, 8 and 24 hours after administration. For quantification, high performance liquid chromatography/tandem mass spectrometry (LC-MS/MS) was used.

Sprague-Dawley rats = experiment: Social recognition test; assay type: in vivo, rat
Experimental: This experiment was performed with Sprague-Dawley rats (male) according to the reported method (Shimazaki et al., European Journal of Pharmacology, 575, 94-97, 2007). Adult rats (9 weeks of age) were placed in a test cage and acclimated for 30 minutes. After 30 minutes, juvenile rats (4 weeks of age) were placed in the same test cage containing the adult rats, and allowed to stand for 5 minutes. During this 5 minutes, the time taken for the adult rats to show social behavior (sniffing, grooming, following) to the juvenile rats was measured (first exploratory time). Then, the rats were removed from the test cage and returned to their respective home cages. After 85 minutes, the adult rats were placed again in the test cage and acclimated for 30 minutes. The same juvenile rats as used in the first exploratory were placed in the test cage, followed by measuring the time taken for the adult rats to show social behavior (sniffing, grooming, following) to the juvenile rats during 5 minutes (second exploratory time). The social recognition was expressed as the ratio of second exploratory time/first exploratory time. A test substance (the compound of Example 70) was orally administered to the adult rats immediately after their first social behavior.

[7] = target: T4, rat recombinant κ receptor (Rattus norvegicus, UniProt P34975); experiment: [3H]U69593 binding test; details: [3H]U69593 1 nM
T4 construct: Cerep, Inc. (contract assay)
T4 sequence (P34975 whole entry): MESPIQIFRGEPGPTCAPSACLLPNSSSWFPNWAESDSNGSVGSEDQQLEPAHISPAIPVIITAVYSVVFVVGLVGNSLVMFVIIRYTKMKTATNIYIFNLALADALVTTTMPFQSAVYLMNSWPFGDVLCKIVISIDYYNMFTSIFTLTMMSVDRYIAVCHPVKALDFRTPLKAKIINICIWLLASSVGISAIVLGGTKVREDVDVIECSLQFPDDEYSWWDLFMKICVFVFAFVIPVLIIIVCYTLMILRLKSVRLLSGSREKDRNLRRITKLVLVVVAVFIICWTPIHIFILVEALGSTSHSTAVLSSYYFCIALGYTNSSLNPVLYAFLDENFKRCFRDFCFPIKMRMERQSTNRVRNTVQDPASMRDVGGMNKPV
Experimental: Affinity for κ receptor was evaluated in a [^3H]U69593 binding test by Cerep, Inc. The κ receptor preparation used was rat recombinant κ receptor. The rat recombinant κ receptor was incubated with [^3H]U69593 (1 nM) at 22° C. for 60 minutes.

C[C@@H]1CCCN1CCCOc1ccc(-n2cc(C(=O)N3CCOCC3)cn2)cc1F [Example 62, [1-(3-fluoro-4-{3-[(2R)-2-methylpyrrolidin-1-yl]propoxy}phenyl)-1H-pyrazol-4-yl](morpholin-4-yl)methanone]
concentration of the test compound at which the survival rate was 50% (CHL/IU cells): 441000 µM | IC50 (human H3 receptor [1]): 8.7 nM

C[C@@H]1CCCN1CCCOc1ccc(-n2cc(N3CCCC3=O)cn2)cc1 [Example 30, 1-[1-(4-{3-[(2R)-2-methylpyrrolidin-1-yl]propoxy}phenyl)-1H-pyrazol-4-yl]pyrrolidine-2-one]
IC50 (human H3 receptor [2]): 1.7 nM | IC50 (human H3 receptor [1]): 3.3 nM

C[C@@H]1CCCN1CCCOc1ccc(-n2cc(C(=O)N3CCOCC3)cn2)cc1 [Example 6, 4-{[1-(4-{3-[(2R)-2-methylpyrrolidin-1-yl]propoxy}phenyl)-1H-pyrazol-4-yl]carbonyl}morpholine]
half-life at 1 μM [3]: ≥ 3 h

C[C@@H]1CCCN1CCCOc1ccc(-n2cc(C(=O)N3CCCOCC3)cn2)cc1 [Example 54, [1-(4-{3-[(2R)-2-methylpyrrolidin-1-yl]propoxy}phenyl)-1H-pyrazol-4-yl](1,4-oxazepan-4-yl)methanone]
inhibition at 10 µM (σ1 receptor): 39% | IC50 (human H3 receptor [1]): 4.1 nM

C[C@@H]1CCCN1CCCOc1ccc(-n2cc(C(=O)N3CCN(C)CC3)cn2)cc1 [Example 55, (4-methylpiperazin-1-yl)[1-(4-{3-[(2R)-2-methylpyrrolidin-1-yl]propoxy}phenyl)-1H-pyrazol-4-yl]methanone]
inhibition at 10 µM (σ1 receptor): 3% | IC50 (human H3 receptor [1]): 5.2 nM

C[C@@H]1CCCN1CCCOc1ccc(-n2cc(C(=O)N3CCOCC3)cn2)cc1.Cl [Example 70, 4-{[1-(4-{3-[(2R)-2-methylpyrrolidin-1-yl]propoxy}phenyl)-1H-pyrazol-4-yl]carbonyl}morpholine monohydrochloride]
concentration of the test compound at which the survival rate was 50% (CHL/IU cells): > 640000 µM | inhibition at 10 µM [4]: 3% | inhibition at 10 µM [5]: -1% | tissue distribution of unchanged form and major metabolites [6]: rapidly disappear from each organ | inhibition at 10 µM (σ1 receptor): 28% | effect on cognitive functions (Sprague-Dawley rats; 10 mg/kg oral, rats, compared to vehicle group): had an enhancing effect on cognitive functions | Ratio (second exploratory time/first exploratory time) (Sprague-Dawley rats; 10 mg/kg orally to adult rats immediately after first social behavior, n = 18, p<0.01 vs vehicle): 0.66 ± 0.06^p<0.01 | inhibition at 10 µM [7]: 17%

C[C@@H]1CCCN1CCCOc1ccc(-n2cc(C(=O)N3CCCC3)cn2)cc1 [Example 56, [1-(4-{3-[(2R)-2-methylpyrrolidin-1-yl]propoxy}phenyl)-1H-pyrazol-4-yl](pyrrolidin-1-yl)methanone]
concentration of the test compound at which the survival rate was 50% (CHL/IU cells): 275000 µM | IC50 (human H3 receptor [1]): 2.8 nM

C[C@@H]1CCCN1CCCOc1ccc(-n2cc(C(=O)N(CCO)CC(=O)O)cn2)cc1 [Example 68, N-(2-hydroxyethyl)-N-{[1-(4-{3-[(2R)-2-methylpyrrolidin-1-yl]propoxy}phenyl)-1H-pyrazol-4-yl]carbonyl}glycine]
IC50 (human H3 receptor [1]): 74.8 nM

C[C@@H]1CCCN1CCCOc1ccc(-n2cc(C(=O)N3CCOCC3)cn2)cc1Br [Example 64, [1-(3-bromo-4-{3-[(2R)-2-methylpyrrolidin-1-yl]propoxy}phenyl)-1H-pyrazol-4-yl](morpholin-4-yl)methanone]
IC50 (human H3 receptor [1]): 10 nM

C[C@@H]1CCCN1CCOc1ccc(-n2cc(C(=O)N3CCOCC3)cn2)cc1 [Example 60, [1-(4-{2-[(2R)-2-methylpyrrolidin-1-yl]ethoxy}phenyl)-1H-pyrazol-4-yl](morpholin-4-yl)methanone]
IC50 (human H3 receptor [1]): 1560 nM

CCN(C(C)=O)c1cnn(-c2ccc(OCCCN3CCCC3C)cc2)c1 (centres unmarked) [Example 39, N-ethyl-N-(1-{4-[3-(2-methylpyrrolidin-1-yl)propoxy]phenyl}-1H-pyrazol-4-yl)acetamide]
IC50 (human H3 receptor [1]): 3.5 nM
